# Patent US20040229960A1, “Compositions and methods of administering tubulin binding agents for the treatment of ocular diseases” (priority 2001, published 2004)
# Experiments:
# [1] = system: ocular neovascularization; assay: LHP-induced ocular neovascularization, intravenous treatment; assay type: in vivo, rabbit; conditions: 40 mg/kg i.v. once a day for five days; eyes examined seven days later
# Experimental: To simulate pathogenic ocular angiogenesis, ocular neovascularization was induced by administration of lipid hydroperoxide (LHP) by intra-corneal injection at a dosage of 30 μg to rabbit eyes. Seven to 14 days later, ocular vessels formed in the injected eyes due to LHP insult. The subjects were divided into two groups; those of one group were given combretastatin A4 disodium phosphate by intravenous administration at a dosage of 40 mg/kg once a day for five days, while a vehicle without combretastatin A4 disodium phosphate was administered to the other group by i.v. administration as a dosage of water for the same time period. The eyes of both groups were examined seven days later.
# [2] = system: corneal neovascularization; assay: LHP-induced rabbit corneal neovascularization model, IP treatment; assay type: in vivo, New Zealand rabbits; conditions: for Effect on neovascular growth: 50 mg/kg IP
# Excerpt: To assess the ability of CA4P to inhibit corneal neovascularization, a rabbit corneal model was used in which neovascularization was induced by linoleic acid hydroperoxide (“LHP”) injection (Ueda et al., Angiogenesis, 1997, 1: 174-184). Injection of LHP in the corneal stroma stimulates the localized production of angiogenic cytokines within the cornea. Blood vessels in the circumlimbal plexus respond to the angiogenic stimulation by migrating towards the site of LHP injection. Therapeutic efficacy of systemically delivered CA4P was assessed by measuring the length of these proliferating vessels.
# Vessels grew at a rate of 0.25 mm/day. Groups 2 and 4 were injected intraperitoneally (“IP”) with CA4P (50 mg/kg) after 3 and 10 days of vessel growth respectively. Treatment groups 1 and 3 were injected with saline control on day 3 and day 10 post-LHP injection. Surface photographs of the cornea were taken at 0, 3, 6, 12, 17, and 28 days post-LHP injection. Following each photographic session, corneal vessels were observed under an operating microscope and Castroviejo calipers were used to measure the length of the most prominent vessel.
# In addition to longest-vessel measurements, histology analysis was undertaken on day 28 to assess the amount of dissolved extracellular matrix, vessel wall thickness, and degree of vessel branching. Euthanized animals were enucleated and the vitreous was removed from each eye prior to fixation in 4% paraformaldehyde for 45 minutes and 0.2M cacodylate buffer (pH 7.4) overnight. Eyes were embedded in paraffin, sectioned to a 3 um thickness, and stained with […] and eosin.
# [3] = Transscleral iontophoretic delivery to retina/choroid (LC/MS/MS); assay type: in vivo, New Zealand white rabbits; conditions: for Enhancement: 20 min vs passive 0 mA; for Amount CA4P Delivered / Amount CA4 Delivered / Total Combretastatin Delivered: retina/choroid, mean ± SD; for Amount CA4P Delivered / Amount CA4 Delivered: CA4P 10 mg/ml; for Amount CA4 Delivered: extrapolated beyond quantification range
# Experimental: CA4P is ionizable at physiological pH and therefore is amenable to iontophoretic delivery. The effectiveness of transcleral iontophoretic delivery of CA4P was evaluated using an ocular rabbit ophthalmic applicator (IOMED Inc.,.Salt Lake City, Utah) composed of an 180 ul silicone receptacle shell backed with silver chloride-coated silver foil current distribution component, a connector lead wire, and a single layer of hydrogel-impregnated polyvinyl acetal matrix to which CA4P (10 mg/ml) was administered. The contact surface area of the applicator was 0.54 cm^2. […] Direct current anodal iontophoresis was performed with each applicator at 2,3,and 4 mA for 20 min using an Phoresor II™ PM 700 (IOMED Inc., Salt Lake City, Utah) power supply. Passive iontophoresis (0 mA for 20 min) was used as a control. Following treatment, the animals were euthanized, and eyes were enucleated 30 minutes post-treatment, rinsed with tap water, and frozen at −70 C. Retina and choirodal tissue was dissected from these sample.
# CA4P, CA, and the internal standard Diethylstilbestrol (Sigma Chemical Company) were quantified from approximately 100 mg of tissue using chromatography tandem mass spectrometry (“LC/MS/MS”) method. An aliquot of methonal extraction was injected onto a SCIEX APIO 3000 LC/MS/MS apparatus equipped with an HPLC colum. Peak area of the m/z 315→285 product ion of CA43 and m/z 395→79 product ion of CA4P were measured against the peak area of the m/z 267→237 product ion of the internal standard. Quantitation was performed using weighted (1/x) linear least squares regression analyses generated from fortified calibration standards prepared immediately prior to each run. […] These levels represent a several thousand-fold excess over what is considered to be a therapeutically relevant concentration for inhibiting tubulin binding (2-3 uM).
# [4] = Intraocular irritation following intravitreal injection; assay type: in vivo, rabbits; conditions: for Mean cell counts in the vitreous fluid (white blood cells): 0.2 ml intravitreal, about 48 h, <=200 acceptable
# Experimental: The test article, CA4P, was evaluated for the potential to cause intraocular irritation following intravitreal injection in rabbits. Following general anesthesia, a 0.2 ml dose of CA4P was administered to the right eyes of eight rabbits. A 0.2 ml dose of 0.9% sodium chloride USP solution was administered to the left eyes of the rabbits to serve as a negative control. Four different concentrations of CA4P were tested. Each of the four concentrations (0.1 mg/ml, 1.0 mg/ml, 10 mg/ml and 100 mg/ml) were dosed to the right eyes of two rabbits. Approximately 48 hours after the treatment, the eyes were examined with a biomicroscopic slit-lamp and an indirect ophthalmoscope. The scores were recorded and the rabbits were euthanized. Immediately after euthanasia, samples of vitreous fluid were drawn and white blood cell counts were determined with a hemacytometer. Counts less than or equal to 200 cells/mm^3 were considered to be acceptable.
# [5] = early intervention, 50 mg/kg IP qd x 5 from Day 3 (Group 2)
compound,measurement,setting,value
"COc1ccc(/C=C\c2cc(OC)c(OC)c(OC)c2)cc1OP(=O)([O-])[O-].[Na+].[Na+] [CA4P, combretastatin A4 disodium phosphate]",Reduction of vessels,[1],≥ 40%
same,Histology of corneal vessels,"[2]; Day 28, stained sections, vs vehicle (round and numerous)",vessels appeared narrow and less numerous
same,Vessel Length on Day 6,[2]; [5],0.7 ± 0.16 mm
same,Vessel Length on Day 12,[2]; [5],0.5 ± 0.61 mm
same,Vessel Length on Day 3,"[2]; early intervention, 50 mg/kg IP qd x 5 from Day 3 (Group 2), Day 3 = treatment start",0.6 ± 0.12 mm
same,Effect on neovascular growth,[2]; intervention 10 days after angiogenic stimulation,the effect was the same
same,Effect on neovascular growth,[2]; intervention within 3 days of angiogenic stimulation,complete inhibition of neovascular growth
same,Vessel Length on Day 12,"[2]; late intervention, 50 mg/kg IP from Day 10 (Group 4), first column",2.6 ± 0.29 mm
same,Vessel Length on Day 12,"[2]; late intervention, 50 mg/kg IP from Day 10 (Group 4), second column",2.8 ± 0.49 mm
same,Regression rate of preformed vessels in the eye,"[2]; rabbit eyes, preliminary work (FIGS. 3, 4)",accelerated the regression rate of preformed vessels
same,Enhancement,[3]; 2 mA,17
same,Enhancement,[3]; 3 mA,16
same,Enhancement,[3]; 4 mA,15
same,Enhancement of delivery of total combretastatin to choroid and retina by iontophoresis,[3]; iontophoresis vs passive delivery,approximately 15 fold
same,Amount CA4P Delivered,"[3]; 0 mA, 20 min (passive)",<0.4 ng
same,Amount CA4 Delivered,"[3]; 0 mA, 20 min (passive)",57 ± 37 ng
same,Total Combretastatin Delivered,"[3]; 0 mA, 20 min (passive)",1.6 ± 1.0 nmol/g
same,Amount CA4P Delivered,"[3]; 2 mA, 20 min",1.4 ± 0.5 ng
same,Amount CA4 Delivered,"[3]; 2 mA, 20 min",910 ± 630 ng
same,Total Combretastatin Delivered,"[3]; 2 mA, 20 min",27 ± 15 nmol/g
same,Amount CA4P Delivered,"[3]; 3 mA, 20 min",3.8 ± 1.5 ng
same,Amount CA4 Delivered,"[3]; 3 mA, 20 min",710 ± 450 ng
same,Total Combretastatin Delivered,"[3]; 3 mA, 20 min",25 ± 17 nmol/g
same,Amount CA4P Delivered,"[3]; 4 mA, 20 min",7.2 ± 6.3 ng
same,Amount CA4 Delivered,"[3]; 4 mA, 20 min",670 ± 440 ng
same,Total Combretastatin Delivered,"[3]; 4 mA, 20 min",24 ± 10 nmol/g
same,Mean cell counts in the vitreous fluid (white blood cells),[4]; 0.1 mg/ml,9 cells/mm^3
same,Irritation on slit-lamp and ophthalmoscope examination,"[4]; 1 mg/ml intravitreal, 2 rabbits",evidence of irritation was noted in one animal
same,Mean cell counts in the vitreous fluid (white blood cells),[4]; 1 mg/ml,962 cells/mm^3
same,Mean cell counts in the vitreous fluid (white blood cells),[4]; 10 mg/ml,10 cells/mg^3
same,"Irritation and inflammation, ophthalmic exams and vitreous white blood cells","[4]; 100 mg/ml intravitreal, both animals",pronounced irritation and inflammation
same,Mean cell counts in the vitreous fluid (white blood cells),[4]; 100 mg/ml,409 cells/mm^3
same,Irritation (Draize Scores),"[4]; Intravitreal, <1 mg",No Irritation
same,"Irritation and inflammation, ophthalmic exams and vitreous white blood cells","[4]; lower dose levels 0.1, 1.0 and 10 mg/ml intravitreal",no clear evidence of irritation or inflammation
